Experiment: Exonuclease Assay: To evaluate the effect of compounds on TREX1 activity, test compounds were serially diluted (11-point, 3-fold) from 10 mM stock solutions and delivered to 384-well low-volume assay plates in 80 nL DMSO using an acoustic dispenser. Next, 4 μL of human TREX1 (0.5 nM), or murine TREX1 (1 nM), diluted in assay buffer (20 mM Tris pH 7.5, 5 mM MgCl2, 100 μg/mL BSA, 0.002% Triton X-100, 2 mM DTT), was added to the assay plate. After incubating for 30 minutes, 4 μL of labeled DNA oligonucleotide (500 nM) in assay buffer was added to initiate TREX1 exonuclease activity. The reaction was allowed to proceed for 45 minutes at room temperature prior to the addition of 4 μL of 150 mM EDTA to halt TREX1 activity. Assay plates were equilibrated for an additional 30 minutes and read on an EnVision Plate Reader (Perkin Elmer) to measure fluorescence emission at 535 nm following excitation at 485 nm. Fluorescence was plotted as a function of log molar compound concentration and fit to four-parameter dose-response equation to determine compound IC50.

Structure (SMILES) | IC50
CC(C)C[C@H](C(=O)NCc1ccc(Cl)c(Cl)c1)N1CCC(C=[S+](C)([O-])c2ccccc2)N2C[C@H](N)C[C@H]2C1=O (some centres not stated) | < 1 µM
CC(C)C[C@H](NC(=O)Cc1ccc(Cl)c(Cl)c1)N1CCC(CCc2ccccc2)N2C[C@H](N)C[C@H]2C1=O (some centres not stated) | in the range around 5.5 µM

— ChEMBL document CHEMBL5729070, “Substituted pyrrolo[1,2-a]pyrazines and pyrrolo[1,2-a][1,4]diazepines as TREX1 inhibitors” (2022)
